Measured values taken from patent US6319932A, “Oxazolidinones useful as alpha 1A adrenoceptor antagonists” (Merck & Co., Inc., priority 1999, dated 2001).

How the values were obtained:
[1] = target: T1, human alpha 1a adrenergic receptor (Homo sapiens, UniProt P35348); assay: Screening Assay: Alpha 1a Adrenergic Receptor Binding ([125I]-HEAT competition binding); conditions: membranes of stably transfected human alpha 1a cell line; 100 pM [125I]-HEAT
T1 construct: expressed in transfected cells; host or cells: stably transfected human alpha 1a cell line (ATCC CRL 11140), membranes
T1 sequence (P35348 1-466): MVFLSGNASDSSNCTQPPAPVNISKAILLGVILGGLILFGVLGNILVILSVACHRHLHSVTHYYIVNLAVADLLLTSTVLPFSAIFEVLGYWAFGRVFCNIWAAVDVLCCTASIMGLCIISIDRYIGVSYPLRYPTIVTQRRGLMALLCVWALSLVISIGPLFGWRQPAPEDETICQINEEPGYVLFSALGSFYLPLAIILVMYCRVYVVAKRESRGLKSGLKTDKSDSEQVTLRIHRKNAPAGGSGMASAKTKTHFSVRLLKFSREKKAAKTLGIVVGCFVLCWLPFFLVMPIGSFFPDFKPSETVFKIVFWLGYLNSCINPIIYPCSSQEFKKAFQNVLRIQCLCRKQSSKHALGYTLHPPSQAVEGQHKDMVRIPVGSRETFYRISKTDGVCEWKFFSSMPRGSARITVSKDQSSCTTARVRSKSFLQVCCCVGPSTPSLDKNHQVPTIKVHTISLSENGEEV
Procedure: Screening Assay: Alpha 1a Adrenergic Receptor Binding
Membranes prepared from the stably transfected human alpha 1a cell line (ATCC CRL 11140) were used to identify compounds that bind to the human alpha 1a adrenergic receptor. These competition binding reactions (total volume=200 μl) contained 50 mM Tris-HCl pH. 7.4, 5 mM EDTA, 150 mM NaCl, 100 pM [^125 I]-HEAT, membranes prepared from the alpha 1a cell line and increasing amounts of unlabeled ligand. Reactions were incubated at room temperature for one hour with shaking. Reactions were filtered onto Whatman GF/C glass fiber filters with a Inotec 96 well cell harvester. Filters were washed three times with ice cold buffer and bound radioactivity was determined (Ki).

[2] = system: human alpha 1d adrenergic receptor; assay: Selective Binding Assays, alpha 1d ([125I]-HEAT competition binding); conditions: alpha 1a versus alpha 1d
Procedure: (§1) Membranes prepared from stably transfected human alpha 1d and alpha 1b cell lines (ATCC CRL 11138 and CRL 11139, respectively) were used to identify compounds that selectively bind to the human alpha 1a adrenergic receptor. These competition binding reactions (total volume=200 μl ) contained 50 mM Tris-HCl pH. 7.4, 5 mM EDTA, 150 mM NaCl, 100 pM [^125 I]-HEAT, membranes prepared from cell lines transfected with the respective alpha 1 subtype expression plasmid and increasing amounts of unlabeled ligand. Reactions were incubated at room temperature for one hour with shaking. Reactions were filtered onto Whatman GF/C glass fiber filters with a Inotec 96 well cell harvester. Filters were washed three times with ice cold buffer and bound radioactivity was determined (Ki).

[3] = system: human alpha 1b adrenergic receptor; assay: Selective Binding Assays, alpha 1b ([125I]-HEAT competition binding); conditions: alpha 1a versus alpha 1b
Procedure: as §1

| selectivity in binding to alpha 1a receptors versus alpha 1d receptors [2] | selectivity in binding to alpha 1a receptors versus alpha 1b receptors [3] | Compound | Ki [1] [nM] |
| --- | --- | --- | --- |
| – | – | N#Cc1ccccc1C1(C#N)CCN(CCCNC(=O)N2C(=O)O[C@@H](C(N)=O)[C@@H]2c2ccc(F)c(F)c2)CC1 [Example 10] | 3.9 |
| about 76 fold | about 27 fold | O=C(c1ccccc1)[C@@H]1OC(=O)N(C(=O)NCCCN2CCC(c3ccc(F)cc3)CC2)[C@H]1c1ccc(F)c(F)c1 [Example 11] | – |
